Data taken from patent US20050008896A1, “Luminous organic compound and manufacturing method” (Orient Chemical Ind., Ltd., priority 2003, published 2005).
Read-outs that look alike come from different tables or passages of the source.

Legend:
[1] = stood at room temperature overnight
Protocol: A method of measurement of the solubility is as follows. After the prescribed amount of the compound was added to each solvent, it was heated by water bath and irradiated supersonic wave for 1 hour. It was stood at room temperature overnight, and filtrated. Obtained residue was dried. Amount of insoluble residue was weighed, and solubility (w/v %) was determined.

[2] = Fluorescence (photoluminescence) intensity in ethanol, fluorescence spectrophotometer RF-5300PC; format: physicochemical; conditions: for Fluorescence Intensity / center of Luminous Wave: 25 mg of compound in 100 ml of ethanol; for Relative Value of Fluorescence Intensity, Relative Value (2) (Related to Metal Complex Intermediate 3): metal complex intermediate 3 regarded as 1.00
Protocol: Fluorescence intensity of each obtained compound was measured in order to evaluate fluorescence property.
A method of the evaluation is as follows. 25 mg of each compound was dissolved in 100 ml of ethanol respectively. The fluorescence intensity, photoluminescence intensity, was measured by a fluorescence spectrophotometer RF-5300PC that is available from Shimadzu Corporation. The measured results of the luminous organic compounds 1 to 9 and 11, the comparative compounds 1 to 3 and the metal complex intermediate 1 to 3 are indicated in Table 3. […] The relative value (2) of the fluorescence intensity indicates the value related to the fluorescence intensity of the metal complex intermediate 3 regarded as 1.00.

[3] = comparative compound 3 regarded as 1.00

Structure (SMILES)	Solubility, Ethanol [1]	Solubility, Ethyl Acetate [1]	Solubility, Methyl Ethyl Ketone [1]	Solubility, Toluene [1]	Solubility, Xylene [1]	Relative Value of Fluorescence Intensity, Relative Value (1) (Related to Comparative Compound 3) [2]	Fluorescence Intensity [2]	center of Luminous Wave [2]	Relative Value of Fluorescence Intensity, Relative Value (2) (Related to Metal Complex Intermediate 3) [2]	Relative Value of Fluorescence Intensity, Relative Value (1) (Related to Comparative Compound 3) [2, 3]
C[N+](C)(C)CCCC[N+](C)(C)C.O=C(C=C([O-])C(F)(F)F)c1cccs1.O=C(C=C([O-])C(F)(F)F)c1cccs1.O=C(C=C([O-])C(F)(F)F)c1cccs1.O=C(C=C([O-])C(F)(F)F)c1cccs1.O=C(C=C([O-])C(F)(F)F)c1cccs1.O=C(C=C([O-])C(F)(F)F)c1cccs1.O=C(C=C([O-])C(F)(F)F)c1cccs1.O=C(C=C([O-])C(F)(F)F)c1cccs1.[Eu+3].[Eu+3] [Luminous Organic Compound 8]	0.15 w/v %	0.88 w/v %	over 10.0 w/v %	0.18 w/v %	0.10 w/v %	1.02	510	(613 nm)	1.03	–
O=C(C=C([O-])C(F)(F)F)c1cccs1.O=C(C=C([O-])C(F)(F)F)c1cccs1.O=C(C=C([O-])C(F)(F)F)c1cccs1.[Eu+3] [Metal Complex Intermediate 2]	–	–	–	–	–	–	566	(613 nm)	1.15	1.13
C[N+](C)(C)CCCC[N+](C)(C)C.O=C(C=C([O-])C(F)(F)F)c1ccc2ccccc2c1.O=C(C=C([O-])C(F)(F)F)c1ccc2ccccc2c1.O=C(C=C([O-])C(F)(F)F)c1ccc2ccccc2c1.O=C(C=C([O-])C(F)(F)F)c1ccc2ccccc2c1.O=C(C=C([O-])C(F)(F)F)c1ccc2ccccc2c1.O=C(C=C([O-])C(F)(F)F)c1ccc2ccccc2c1.O=C(C=C([O-])C(F)(F)F)c1ccc2ccccc2c1.O=C(C=C([O-])C(F)(F)F)c1ccc2ccccc2c1.[Eu+3].[Eu+3] [Luminous Organic Compound 2]	0.19 w/v %	1.54 w/v %	over 10.0 w/v %	0.24 w/v %	0.10 w/v %	1.48	744	(613 nm)	1.50	–
O=C(C=C([O-])C(F)(F)F)c1ccc2ccccc2c1.O=C(C=C([O-])C(F)(F)F)c1ccc2ccccc2c1.O=C(C=C([O-])C(F)(F)F)c1ccc2ccccc2c1.[Eu+3] [Metal Complex Intermediate 1]	–	–	–	–	–	–	665	(613 nm)	1.35	1.32
O=C(C=C([O-])C(F)(F)F)c1ccccc1.O=C(C=C([O-])C(F)(F)F)c1ccccc1.O=C(C=C([O-])C(F)(F)F)c1ccccc1.[Eu+3] [Metal Complex Intermediate 3]	–	–	–	–	–	–	493	(613 nm)	(1.00)	0.98
C[N+](C)(C)CCCCCC[N+](C)(C)C.O=C(C=C([O-])C(F)(F)F)c1ccc2ccccc2c1.O=C(C=C([O-])C(F)(F)F)c1ccc2ccccc2c1.O=C(C=C([O-])C(F)(F)F)c1ccc2ccccc2c1.O=C(C=C([O-])C(F)(F)F)c1ccc2ccccc2c1.O=C(C=C([O-])C(F)(F)F)c1ccc2ccccc2c1.O=C(C=C([O-])C(F)(F)F)c1ccc2ccccc2c1.O=C(C=C([O-])C(F)(F)F)c1ccc2ccccc2c1.O=C(C=C([O-])C(F)(F)F)c1ccc2ccccc2c1.[Eu+3].[Eu+3] [Luminous Organic Compound 3]	0.14 w/v %	9.01 w/v %	over 10.0 w/v %	0.31 w/v %	0.18 w/v %	1.63	822	(613 nm)	1.66	–
C[N+](C)(C)CCCC[N+](C)(C)C.O=C(C=C([O-])C(F)(F)F)c1ccccc1.O=C(C=C([O-])C(F)(F)F)c1ccccc1.O=C(C=C([O-])C(F)(F)F)c1ccccc1.O=C(C=C([O-])C(F)(F)F)c1ccccc1.O=C(C=C([O-])C(F)(F)F)c1ccccc1.O=C(C=C([O-])C(F)(F)F)c1ccccc1.O=C(C=C([O-])C(F)(F)F)c1ccccc1.O=C(C=C([O-])C(F)(F)F)c1ccccc1.[Eu+3].[Eu+3] [Luminous Organic Compound 9]	0.11 w/v %	3.55 w/v %	over 10.0 w/v %	0.30 w/v %	0.12 w/v %	1.00	502	(612 nm)	1.02	–
CCCC[N+](C)(C)CCCC[N+](C)(C)CCCC.O=C(C=C([O-])C(F)(F)F)c1ccc2ccccc2c1.O=C(C=C([O-])C(F)(F)F)c1ccc2ccccc2c1.O=C(C=C([O-])C(F)(F)F)c1ccc2ccccc2c1.O=C(C=C([O-])C(F)(F)F)c1ccc2ccccc2c1.O=C(C=C([O-])C(F)(F)F)c1ccc2ccccc2c1.O=C(C=C([O-])C(F)(F)F)c1ccc2ccccc2c1.O=C(C=C([O-])C(F)(F)F)c1ccc2ccccc2c1.O=C(C=C([O-])C(F)(F)F)c1ccc2ccccc2c1.[Eu+3].[Eu+3] [Luminous Organic Compound 6]	0.14 w/v %	over 10.0 w/v %	over 10.0 w/v %	3.86 w/v %	3.22 w/v %	1.51	758	(613 nm)	1.53	–
C[N+](C)(C)c1ccc([N+](C)(C)C)cc1.O=C(C=C([O-])C(F)(F)F)c1ccc2ccccc2c1.O=C(C=C([O-])C(F)(F)F)c1ccc2ccccc2c1.O=C(C=C([O-])C(F)(F)F)c1ccc2ccccc2c1.O=C(C=C([O-])C(F)(F)F)c1ccc2ccccc2c1.O=C(C=C([O-])C(F)(F)F)c1ccc2ccccc2c1.O=C(C=C([O-])C(F)(F)F)c1ccc2ccccc2c1.O=C(C=C([O-])C(F)(F)F)c1ccc2ccccc2c1.O=C(C=C([O-])C(F)(F)F)c1ccc2ccccc2c1.[Eu+3].[Eu+3] [Luminous Organic Compound 4]	0.08 w/v %	over 10.0 w/v %	over 10.0 w/v %	0.23 w/v %	0.22 w/v %	1.52	766	(613 nm)	1.55	–
C[N+](C)(C)CCCC[N+](C)(C)C.O=C(C=C([O-])C(F)(F)F)c1ccc2ccccc2c1.O=C(C=C([O-])C(F)(F)F)c1ccc2ccccc2c1.O=C(C=C([O-])C(F)(F)F)c1ccc2ccccc2c1.O=C(C=C([O-])C(F)(F)F)c1ccc2ccccc2c1.O=C(C=C([O-])C(F)(F)F)c1ccc2ccccc2c1.O=C(C=C([O-])C(F)(F)F)c1ccc2ccccc2c1.O=C(C=C([O-])C(F)(F)F)c1ccc2ccccc2c1.O=C(C=C([O-])C(F)(F)F)c1ccc2ccccc2c1.[Al+3].[Al+3] [Luminous Organic Compound 11]	0.21 w/v %	1.60 w/v %	over 10.0 w/v %	0.25 w/v %	0.10 w/v %	0.52	262	(455 nm)	0.53	–
C[N+](C)(C)CC[N+](C)(C)C.O=C(C=C([O-])C(F)(F)F)c1ccc2ccccc2c1.O=C(C=C([O-])C(F)(F)F)c1ccc2ccccc2c1.O=C(C=C([O-])C(F)(F)F)c1ccc2ccccc2c1.O=C(C=C([O-])C(F)(F)F)c1ccc2ccccc2c1.O=C(C=C([O-])C(F)(F)F)c1ccc2ccccc2c1.O=C(C=C([O-])C(F)(F)F)c1ccc2ccccc2c1.O=C(C=C([O-])C(F)(F)F)c1ccc2ccccc2c1.O=C(C=C([O-])C(F)(F)F)c1ccc2ccccc2c1.[Eu+3].[Eu+3] [Luminous Organic Compound 1]	0.20 w/v %	over 10.0 w/v %	over 10.0 w/v %	0.52 w/v %	0.10 w/v %	1.31	662	(613 nm)	1.34	–
C[N+](C)(C)CCCC[N+](C)(C)C.O=C(C=C([O-])C(F)(F)F)c1ccc2ccccc2c1.O=C(C=C([O-])C(F)(F)F)c1ccc2ccccc2c1.O=C(C=C([O-])C(F)(F)F)c1ccc2ccccc2c1.O=C(C=C([O-])C(F)(F)F)c1ccc2ccccc2c1.O=C(C=C([O-])C(F)(F)F)c1ccc2ccccc2c1.O=C(C=C([O-])C(F)(F)F)c1ccc2ccccc2c1.O=C(C=C([O-])C(F)(F)F)c1ccc2ccccc2c1.O=C(C=C([O-])C(F)(F)F)c1ccc2ccccc2c1.[Tb+3].[Tb+3] [Luminous Organic Compound 10]	0.062 w/v %	1.21 w/v %	over 10.0 w/v %	0.43 w/v %	0.32 w/v %	–	–	–	–	–
